The structures appear in SMILES notation. A value given as a limit tells only on which side of the number the result lay.

Holding throughout (type): biochemical
Assay [1] concerns the target T1, EGFR-kinase domain (Homo sapiens, UniProt P00533).
T1 construct: 0.5 μg EGFR-kinase domain/well
Briefly: In vitro inhibition of EGFR (Flash Plate assay). Conditions: full dose response 1.10^−6M to 1.10^−10M, read-out: C12 EGFR flash Score. On the procedure: The in vitro inhibition of EGFR was assessed using either the Flash Plate technology or the glass-fiber filter technology as described by Davies, S. P. et al., Biochem J. (2000), 351; p. 95-105. The Flash Plate technology is generally described by B. A. Brown et al. in High Throughput Screening (1997), p. 317-328. Editor(s): Devlin, John P. Publisher: Dekker, New York, N.Y.
In the Flash Plate EGFR kinase reaction assay, a kinase substrate consisting of biotinylated poly(L-glutamic acid-L-tyrosine) (poly(GT)biotin), is incubated with the aforementioned protein in the presence of (^33P) radiolabeled ATP. (^33P) phosphorylation of the substrate is subsequently measured as light energy emitted using a streptavidin-coated Flash Plate (PerkinElmer Life Sciences) by trapping and quantifying the binding of the biotin tagged and radiolabeled substrate.
The EGFR kinase reaction is performed at 30° C. for 60 minutes in a 96-well microtiter FlashPlate (PerkinElmer Life Sciences). For each of the tested compounds a full dose response 1.10^−6M to 1.10^−10M has been performed. IRESSA® and Tarceva™ (erlotinib) were used as reference compounds. The 100 μl reaction volume contains 54.5 mM TrisHCl pH 8.0, 10 mM MgCl2, 100 μM Na3VO4, 5.0 μM unlabeled ATP, 1 mM DTT, 0.009% BSA, 0.8 μCi AT^33P, 0.35 μg/well poly(GT)biotin and 0.5 μg EGFR-kinase domain/well.
The reaction is stopped by aspirating the reaction mixture and washing the plate 3× with 200 μl wash/stop buffer (PBS+100 mM EDTA). After the final wash step 200 μl of wash/stop buffer was added to each well and the amount of phosphorylated (^33P) Poly(GT)biotin determined by counting (30 sec/well) in a microtiterplate scintillation counter.

For assay [2], the target named is ErbB2 (h) (Homo sapiens, UniProt P04626). Nature of the assay: ErbB2 human kinase assay (filter). The settings on record: read-out: C13 ERBB 2 Filter Score. The protocol:
Similarly to the above the in vitro inhibition of two other kinases, i.e. human ErbB2 and human ErbB4 was tested for some of the compounds according to the invention.
In a final reaction volume of 25 μl, ErbB2 (h) (5-10 mU) is incubated with 8 mM MOPS pH 7.0, 0.2 mM EDTA, 10 mM MnCl2, 0.1 mg/ml poly(Glu, Tyr) 4:1, 10 mM MgAcetate and [γ-33P-ATP] (specific activity approx. 500 cpm/pmol, concentration as required). The reaction is initiated by the addition of the MgATP mix. After incubation for 40 minutes at room temperature, the reaction is stopped by the addition of 5 μl of a 3% phosphoric acid solution. 10 μl of the reaction is then spotted onto a Filtermat A and washed three times for 5 minutes in 75 mM phosphoric acid and once in methanol prior to drying and scintillation counting.

Assay [3] has as its target Abl (h) (Homo sapiens, UniProt P00519). Nature of the assay: Abl human kinase assay (glass-fiber filter). The settings on record: test concentration of 10^−6M.
In assay [4] the target is CSK (h) (Homo sapiens, UniProt P41240). Nature of the assay: CSK human kinase assay (glass-fiber filter). Conditions: test concentration of 10^−6M. On the procedure:
In the glass-fiber filter technology the activity of the kinase of interest is measured using an appropriate substrate that is incubated with the aforementioned kinase protein in the presence of (^33P) radiolabeled ATP. (^33P) Phosphorylation of the substrate is subsequently measured as radioactivity bound on a glass fiber-filter.
All kinases are pre-diluted to a 10× working concentration prior to addition into the assay. The composition of the dilution buffer for each kinase is detailed below.
In a final reaction volume of 25 μl, CSK (h) (5-10 mU) is incubated with 50 mM Tris pH 7.5, 0.1 mM EGTA, 0.1 mM Na3VO4, 0.1% β-mercaptoethanol, 0.1 mg/ml poly(Glu, Tyr) 4:1, 10 mM MnCl2, 10 mM MgAcetate and [γ-^33P-ATP] (specific activity approx. 500 cpm/pmol, concentration as required). The reaction is initiated by the addition of the MgATP mix. After incubation for 40 minutes at room temperature, the reaction is stopped by the addition of 5 μl of a 3% phosphoric acid solution. 10 μl of the reaction is then spotted onto a Filtermat A and washed three times for 5 minutes in 75 mM phosphoric acid and once in methanol prior to drying and scintillation counting.

For assay [5], the target named is cSRC (h) (Homo sapiens, UniProt P12931). Briefly: cSRC human kinase assay (glass-fiber filter). The settings on record: test concentration of 10^−6M. The essentials: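 Radiometric assay: kinase and substrate are incubated with [33P]ATP, with the reaction started by MgATP mix. The reaction is spotted on P30 filtermat, washed in 75 mM phosphoric acid and methanol, and the bound 33P is measured by scintillation counting.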
cSRC (h), sequence (P12931 whole entry): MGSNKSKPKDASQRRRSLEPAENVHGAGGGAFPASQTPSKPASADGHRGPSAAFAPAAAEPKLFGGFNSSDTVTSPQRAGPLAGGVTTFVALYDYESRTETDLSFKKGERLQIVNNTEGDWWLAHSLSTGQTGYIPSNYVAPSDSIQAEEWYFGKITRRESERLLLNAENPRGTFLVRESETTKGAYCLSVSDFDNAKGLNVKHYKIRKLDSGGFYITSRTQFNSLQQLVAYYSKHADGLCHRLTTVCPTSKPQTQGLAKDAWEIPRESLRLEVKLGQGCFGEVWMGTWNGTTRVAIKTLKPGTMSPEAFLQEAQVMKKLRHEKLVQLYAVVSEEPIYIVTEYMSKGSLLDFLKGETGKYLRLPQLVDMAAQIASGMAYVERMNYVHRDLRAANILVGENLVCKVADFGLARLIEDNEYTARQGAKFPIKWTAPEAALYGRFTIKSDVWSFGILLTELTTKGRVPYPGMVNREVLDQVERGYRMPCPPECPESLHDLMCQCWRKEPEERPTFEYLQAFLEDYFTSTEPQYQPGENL

The target in assay [6] is EGFR (h) (Homo sapiens, UniProt P00533). Nature of the assay: EGFR human kinase assay (glass-fiber filter). The settings on record: test concentration of 10^−6M. The essentials:
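Human EGFR (5-10 mU) phosphorylated 0.1 mg/ml poly(Glu, Tyr) 4:1 in 8 mM MOPS pH 7.0, 0.2 mM EDTA, 10 mM MnCl2, 10 mM MgAcetate with [γ-33P]ATP at unspecified concentration. Incubation lasted 40 minutes at room temperature, was stopped with phosphoric acid, and filter-bound 33P was counted by scintillation.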

The target in assay [7] is Fes (h) (Homo sapiens, UniProt P07332). Briefly: Fes human kinase assay (glass-fiber filter). The settings on record: test concentration of 10^−6M. The essentials:
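Human Fes (5–10 mU) was incubated with 0.1 mg/ml poly(Glu,Tyr) 4:1 in 8 mM MOPS pH 7.0, 0.2 mM EDTA, 10 mM Mg acetate and [γ-33P]ATP for 40 min at room temperature. The reaction was stopped with phosphoric acid, and substrate phosphorylation was quantified by filter binding and scintillation counting.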

Assay [8] concerns the target Lck (h) (Homo sapiens, UniProt P06239). Briefly: Lck human kinase assay (glass-fiber filter). Conditions: test concentration of 10^−6M. In outline:
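Kinase activity measured as transfer of (^33P) from radiolabeled MgATP to substrate, captured on P30 glass-fiber filtermat, washed in 75 mM phosphoric acid and methanol, then scintillation counted.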

For assay [9], the target named is Lyn (h) (Homo sapiens, UniProt P07948). Briefly: Lyn human kinase assay (glass-fiber filter). Conditions: test concentration of 10^−6M. The essentials: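 Human Lyn (5-10 mU) phosphorylating poly(Glu,Tyr) 4:1 at 0.1 mg/ml with [γ-33P]ATP (concentration as required) in 50 mM Tris pH 7.5, 10 mM Mg acetate, 40 min at room temperature. Stopped with phosphoric acid; substrate-bound radioactivity counted on glass-fibre filter.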

The target of assay [10] is Yes (h) (Homo sapiens, UniProt P07947). Briefly: Yes human kinase assay (glass-fiber filter). The settings on record: test concentration of 10^−6M. In outline: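 Yes (h) (5-10 mU) with 0.1 mg/ml poly(Glu, Tyr) 4:1 in 8 mM MOPS pH 7.0, 0.2 mM EDTA, 10 mM MgAcetate and [γ-^33P-ATP], 40 minutes at room temperature. Stopped with phosphoric acid; substrate-bound ^33P counted on glass-fiber filter by scintillation.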
Yes (h), sequence (P07947 whole entry): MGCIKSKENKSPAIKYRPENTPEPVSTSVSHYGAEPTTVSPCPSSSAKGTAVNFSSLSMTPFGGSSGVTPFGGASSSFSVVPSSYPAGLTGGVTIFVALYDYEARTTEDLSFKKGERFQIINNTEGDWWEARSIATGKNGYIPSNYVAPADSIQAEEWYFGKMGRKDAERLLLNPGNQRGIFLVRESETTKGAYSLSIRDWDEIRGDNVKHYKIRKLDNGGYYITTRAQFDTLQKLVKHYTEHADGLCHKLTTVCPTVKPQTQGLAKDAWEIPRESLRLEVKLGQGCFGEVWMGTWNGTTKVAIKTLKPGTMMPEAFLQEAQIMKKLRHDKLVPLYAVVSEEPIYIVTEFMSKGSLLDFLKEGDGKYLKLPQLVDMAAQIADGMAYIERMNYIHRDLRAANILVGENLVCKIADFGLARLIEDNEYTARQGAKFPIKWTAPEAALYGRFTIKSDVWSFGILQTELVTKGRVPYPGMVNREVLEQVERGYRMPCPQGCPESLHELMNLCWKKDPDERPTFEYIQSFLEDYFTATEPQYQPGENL

For assay [11], the target named is Fms (h) (Homo sapiens, UniProt P07333). Briefly: Fms human kinase assay (glass-fiber filter). The settings on record: test concentration of 10^−6M. In outline:
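Radiometric filter-binding assay: Fms (5-10 mU) with 250 μM peptide substrate and [γ-33P]ATP in 8 mM MOPS pH 7.0, 10 mM Mg acetate, 40 min at room temperature. Reaction stopped with phosphoric acid; substrate-bound 33P counted on P30 filtermat.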

Assay [12] deals with GSK3B (h) (Homo sapiens, UniProt P49841). Briefly: GSK3β human kinase assay (glass-fiber filter). Conditions: test concentration of 10^−6M. The essentials: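 Human GSK3β (5-10 mU) with 20 μM phospho GS2 peptide, [γ-^33P]ATP, 8 mM MOPS pH 7.0, 10 mM Mg acetate; 40 min at room temperature. Stopped with phosphoric acid; substrate phosphorylation read as filter-bound radioactivity by scintillation counting.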
GSK3B (h), sequence (P49841 whole entry): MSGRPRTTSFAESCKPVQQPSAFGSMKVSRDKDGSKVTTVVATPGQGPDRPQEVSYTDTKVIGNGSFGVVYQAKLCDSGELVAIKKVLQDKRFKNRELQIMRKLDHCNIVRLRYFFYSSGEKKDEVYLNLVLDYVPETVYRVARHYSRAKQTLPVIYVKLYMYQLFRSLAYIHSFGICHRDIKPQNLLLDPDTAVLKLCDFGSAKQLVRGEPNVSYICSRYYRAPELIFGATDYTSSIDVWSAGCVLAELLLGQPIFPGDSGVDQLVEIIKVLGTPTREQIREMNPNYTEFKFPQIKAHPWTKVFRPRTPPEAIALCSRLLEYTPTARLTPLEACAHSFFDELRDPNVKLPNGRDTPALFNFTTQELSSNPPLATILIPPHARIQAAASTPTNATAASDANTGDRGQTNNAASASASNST

The target in assay [13] is Flt3 (h) (Homo sapiens, UniProt P36888). Briefly: Flt3 human kinase assay (glass-fiber filter). The settings on record: test concentration of 10^−6M; read-out: C6 score (inhibition of Flt3 human). In outline: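 Human Flt3 (5-10 mU) with 50 μM peptide substrate in 8 mM MOPS pH 7.0, 0.2 mM EDTA, 10 mM Mg acetate and [γ-33P]ATP (concentration as required), 40 min at room temperature. Reaction stopped with phosphoric acid; substrate 33P incorporation counted on P30 glass-fiber filter.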

T1 sequence (P00533 712-979 limits assumed): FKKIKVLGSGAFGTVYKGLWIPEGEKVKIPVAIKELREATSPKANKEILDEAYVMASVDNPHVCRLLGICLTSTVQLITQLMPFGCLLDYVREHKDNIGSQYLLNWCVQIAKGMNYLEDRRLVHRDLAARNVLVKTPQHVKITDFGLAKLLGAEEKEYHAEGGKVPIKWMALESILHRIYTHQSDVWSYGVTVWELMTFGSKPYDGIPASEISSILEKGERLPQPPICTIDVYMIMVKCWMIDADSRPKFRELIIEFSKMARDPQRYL
Fms (h), sequence (P07333 20-972): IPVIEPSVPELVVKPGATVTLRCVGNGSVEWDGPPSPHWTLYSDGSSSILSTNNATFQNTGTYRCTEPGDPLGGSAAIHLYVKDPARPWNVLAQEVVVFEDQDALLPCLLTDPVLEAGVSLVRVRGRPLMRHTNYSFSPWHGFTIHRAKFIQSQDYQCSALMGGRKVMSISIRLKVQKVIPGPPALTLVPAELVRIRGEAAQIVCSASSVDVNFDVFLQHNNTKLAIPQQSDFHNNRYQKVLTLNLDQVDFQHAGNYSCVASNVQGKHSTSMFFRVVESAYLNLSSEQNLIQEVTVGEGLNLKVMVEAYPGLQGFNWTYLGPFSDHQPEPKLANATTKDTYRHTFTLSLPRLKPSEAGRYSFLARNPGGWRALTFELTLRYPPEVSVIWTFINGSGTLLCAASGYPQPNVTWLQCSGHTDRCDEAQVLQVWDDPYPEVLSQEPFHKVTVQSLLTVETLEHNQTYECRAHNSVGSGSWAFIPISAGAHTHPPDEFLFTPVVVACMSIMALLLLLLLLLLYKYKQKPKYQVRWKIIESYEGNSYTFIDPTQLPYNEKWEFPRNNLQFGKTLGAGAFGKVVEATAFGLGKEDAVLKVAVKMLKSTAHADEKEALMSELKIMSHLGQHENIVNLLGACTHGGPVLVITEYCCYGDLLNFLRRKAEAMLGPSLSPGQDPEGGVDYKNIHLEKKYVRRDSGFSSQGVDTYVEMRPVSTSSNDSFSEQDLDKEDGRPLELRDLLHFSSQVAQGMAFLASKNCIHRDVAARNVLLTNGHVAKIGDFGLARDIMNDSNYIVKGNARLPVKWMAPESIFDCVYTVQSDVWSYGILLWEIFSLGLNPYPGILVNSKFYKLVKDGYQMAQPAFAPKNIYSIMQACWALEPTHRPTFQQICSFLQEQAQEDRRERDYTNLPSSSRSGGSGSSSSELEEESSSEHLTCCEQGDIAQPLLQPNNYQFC
CSK (h), sequence (P41240 whole entry): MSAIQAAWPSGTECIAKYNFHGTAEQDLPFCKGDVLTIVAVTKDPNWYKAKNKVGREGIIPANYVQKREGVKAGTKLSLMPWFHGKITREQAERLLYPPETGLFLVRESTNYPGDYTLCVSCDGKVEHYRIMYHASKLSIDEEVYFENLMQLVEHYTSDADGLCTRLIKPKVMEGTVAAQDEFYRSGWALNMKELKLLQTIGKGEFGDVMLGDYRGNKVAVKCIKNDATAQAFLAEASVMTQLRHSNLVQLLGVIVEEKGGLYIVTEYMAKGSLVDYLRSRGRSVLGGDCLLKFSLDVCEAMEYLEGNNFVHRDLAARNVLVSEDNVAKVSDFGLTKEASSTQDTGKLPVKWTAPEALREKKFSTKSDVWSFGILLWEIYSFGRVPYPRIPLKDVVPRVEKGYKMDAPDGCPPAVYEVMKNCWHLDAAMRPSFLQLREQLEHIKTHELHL
Lck (h), sequence (P06239 whole entry): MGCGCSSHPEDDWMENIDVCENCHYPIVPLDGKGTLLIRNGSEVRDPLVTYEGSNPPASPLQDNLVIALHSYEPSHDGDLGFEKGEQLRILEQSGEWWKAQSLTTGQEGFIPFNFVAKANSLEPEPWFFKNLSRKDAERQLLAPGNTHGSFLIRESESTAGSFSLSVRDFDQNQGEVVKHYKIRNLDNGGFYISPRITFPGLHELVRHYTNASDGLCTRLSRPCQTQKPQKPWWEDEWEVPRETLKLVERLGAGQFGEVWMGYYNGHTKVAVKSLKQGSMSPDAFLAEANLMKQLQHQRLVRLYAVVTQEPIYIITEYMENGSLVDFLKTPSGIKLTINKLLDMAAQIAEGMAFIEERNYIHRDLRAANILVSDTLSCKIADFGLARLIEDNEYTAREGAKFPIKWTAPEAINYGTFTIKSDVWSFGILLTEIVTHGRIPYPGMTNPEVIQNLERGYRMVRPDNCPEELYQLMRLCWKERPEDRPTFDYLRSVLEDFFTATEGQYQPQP
ErbB2 (h), sequence (P04626 23-1255): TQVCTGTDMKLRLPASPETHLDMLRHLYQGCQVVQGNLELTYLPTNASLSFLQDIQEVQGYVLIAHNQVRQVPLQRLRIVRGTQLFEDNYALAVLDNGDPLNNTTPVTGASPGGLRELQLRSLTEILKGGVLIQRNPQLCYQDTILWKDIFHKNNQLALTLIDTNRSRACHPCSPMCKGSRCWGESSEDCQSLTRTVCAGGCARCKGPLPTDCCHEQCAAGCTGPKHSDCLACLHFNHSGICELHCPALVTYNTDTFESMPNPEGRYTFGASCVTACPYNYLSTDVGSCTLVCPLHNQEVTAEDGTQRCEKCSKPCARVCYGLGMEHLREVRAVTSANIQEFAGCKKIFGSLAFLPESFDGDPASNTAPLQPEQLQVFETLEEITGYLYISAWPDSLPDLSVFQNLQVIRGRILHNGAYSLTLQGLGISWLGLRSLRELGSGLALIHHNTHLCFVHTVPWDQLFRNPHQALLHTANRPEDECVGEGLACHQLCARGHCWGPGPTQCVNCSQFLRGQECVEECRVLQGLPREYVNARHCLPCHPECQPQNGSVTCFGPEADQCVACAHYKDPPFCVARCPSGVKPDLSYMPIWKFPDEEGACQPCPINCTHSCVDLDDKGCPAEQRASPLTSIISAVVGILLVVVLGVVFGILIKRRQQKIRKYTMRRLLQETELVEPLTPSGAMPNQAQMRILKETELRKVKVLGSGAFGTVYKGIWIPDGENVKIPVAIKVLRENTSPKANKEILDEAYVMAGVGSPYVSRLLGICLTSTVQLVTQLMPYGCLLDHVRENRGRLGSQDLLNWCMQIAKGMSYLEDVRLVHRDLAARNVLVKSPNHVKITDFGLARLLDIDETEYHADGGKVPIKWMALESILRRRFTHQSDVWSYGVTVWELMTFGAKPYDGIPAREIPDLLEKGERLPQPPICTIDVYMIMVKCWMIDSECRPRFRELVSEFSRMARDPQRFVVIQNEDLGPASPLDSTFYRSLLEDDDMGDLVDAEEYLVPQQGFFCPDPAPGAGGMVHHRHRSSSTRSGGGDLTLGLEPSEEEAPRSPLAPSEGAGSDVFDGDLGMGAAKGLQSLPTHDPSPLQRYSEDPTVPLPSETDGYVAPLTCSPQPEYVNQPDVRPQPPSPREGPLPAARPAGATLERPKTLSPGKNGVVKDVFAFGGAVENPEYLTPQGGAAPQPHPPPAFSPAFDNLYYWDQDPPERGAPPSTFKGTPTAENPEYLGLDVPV

As to `CCN1CCNC(=O)C(CC(C)C)NC(=O)CN(C)Cc2cccc(c2)Nc2cc(ncn2)Nc2cccc(c2)C1` (centres unmarked) [Compound 154], the IC50 in assay [1] and in assay [2] was 1 to 10 µM each time.
`O=C1COc2cccc(c2)Nc2cc(ncn2)Nc2cccc(c2)OCCCCCN1` [Compound 163]: the IC50 in assay [2] was below 1 µM.
Same read-out and setting: the figure for `CCN1CCNC(=O)C(CCCCN(C)C)NC(=O)CN(C)Cc2cccc(c2)Nc2cc(ncn2)Nc2cccc(c2)C1` (centres unmarked) [Compound 153] is 1 to 10 µM.
Take `COc1ccc2cc1OCCNC(=O)C(Cc1ccc(C(F)(F)F)cc1)NC(=O)CN(C)Cc1cccc(c1)Nc1cc(ncn1)N2` (centres unmarked) [Compound 114]: the IC50 in assay [1] was below 1 µM; in [2] it was 1 to 10 µM.
As to `Cl.Cl.O=C1CNC(=O)Cc2ccc(Cl)cc2Nc2cc(ncn2)Nc2ccc(OCCCN3CCOCC3)c(c2)OCCN1` [Compound 107, 1H,7H-6,2:8,12-dimetheno-13,1,3,5,7,16,19-benzoxahexaazacyclotricosine-17,20(14H)-dione, 24-chloro-15,16,18,19,21-pentahydro-11-[3-(4-morpholinyl)propoxy]-, hydrochloric acid salt (1:2)], the “C1 score (inhibition of Abl human)” value in assay [3] is on record as 4 (Score 4=>80% inhibition). Also, the “C2 score (inhibition of CSK human)” value in assay [4] was 3 (Score 3=60-80% inhibition). Further, the “C3 score (inhibition of cSRC human)” value in assay [5] is 4 (Score 4=>80% inhibition). In assay [6], the “C4 score (inhibition of EGFR human)” value was 4 (Score 4=>80% inhibition). Besides, the “C4 score (inhibition of Fes human)” value in [7] is on record as 4 (Score 4=>80% inhibition). Besides, the “C9 score (inhibition of Lck human)” value in assay [8] is 4 (Score 4=>80% inhibition). For the same molecule, the “C10 score (inhibition of Lyn human)” value in [9] is listed as 4 (Score 4=>80% inhibition). Besides, in [10], the “C11 score (inhibition of Yes human)” value is on record as 4 (Score 4=>80% inhibition).
As for `COc1ccc2cc1OCCNC(=O)C1CN(CCO1)C(=O)CN(C)Cc1cccc(c1)Nc1cc(ncn1)N2` (racemic) [Compound 158], the IC50 in [1] is below 1 µM; in [2], 1 to 10 µM.
For `COc1ccc2cc1OCCCCCCCCOc1ccc(Br)cc1Nc1cc(ncn1)N2` [Compound 38, 1H,7H-2,6: 12,8-dimetheno-13,22,1,3,5,7-benzodioxatetraazacyclotetracosine, 25-bromo-14,15,16,17,18,19,20,21-octahydro-11-methoxy-], the “C2 score (inhibition of CSK human)” value in assay [4] was 1 (Score 1=10-30% inhibition). The “C3 score (inhibition of cSRC human)” value in [5] is recorded as 1 (Score 1=10-30% inhibition). Further, the “C4 score (inhibition of EGFR human)” value in [6] is listed as 3 (Score 3=60-80% inhibition). In assay [11], the “C7 score (inhibition of Fms human)” value was 2 (Score 2=30-60% inhibition). Moreover, the “C8 score (inhibition of GSK3β human)” value in [12] is on record as 1 (Score 1=10-30% inhibition). For the same molecule, the “C10 score (inhibition of Lyn human)” value in assay [9] is on record as 1 (Score 1=10-30% inhibition). In assay [10], the “C11 score (inhibition of Yes human)” value is listed as 1 (Score 1=10-30% inhibition).
For the molecule `O=C1COc2cccc(c2)Nc2cc(ncn2)Nc2cccc(c2)CN2CCN1CC2` [Compound 42, 20-oxa-1,8,10,12,14,23-hexaazapentacyclo[21.2.2.1~3,7~.1~9,13~.1~15,19~]triaconta-3,5,7(30),9,11,13(29),15,17,19(28)-nonaen-22-one], the inhibition at 1 µM was 30 to 60% in assay [4] (read-out: C2 score (inhibition of CSK human)); 10 to 30% in [5] (read-out: C3 score (inhibition of cSRC human)); 30 to 60% in [13]; 30 to 60% in [11] (read-out: C7 score (inhibition of Fms human)); 10 to 30% in [12] (read-out: C8 score (inhibition of GSK3β human)); 30 to 60% in assay [8] (read-out: C9 score (inhibition of Lck human)). The inhibition at 1 µM in assay [10] (read-out: C11 score (inhibition of Yes human)) fell in the range of 60 to 80%.
For the molecule `COc1ccc2cc1OCCCCCCCCCOc1ccc(Cl)cc1Nc1cc(ncn1)N2` [Compound 39, 1H,7H-2,6: 12,8-dimetheno-14H-13,23,1,3,5,7-benzodioxatetraazacyclopentacosine, 26-chloro-15,16,17,18,19,20,21,22-octahydro-11-methoxy-], the “C2 score (inhibition of CSK human)” value in assay [4] was 1 (Score 1=10-30% inhibition). The “C4 score (inhibition of Fes human)” value in assay [7] is on record as 1 (Score 1=10-30% inhibition). Besides, the “C7 score (inhibition of Fms human)” value in [11] is 1 (Score 1=10-30% inhibition). The “C8 score (inhibition of GSK3β human)” value in assay [12] is on record as 1 (Score 1=10-30% inhibition). Moreover, the “C9 score (inhibition of Lck human)” value in [8] is 1 (Score 1=10-30% inhibition).

The inhibition is the change of the read-out against control, counted positive when it falls.

Values taken from patent publication US8148388B2, “2,4 (4,6) pyrimidine derivatives” (Janssen Pharmaceutica, N.V., priority 2004, dated 2012).
